Experimental data as given in patent US8741934B2, “Inhibitors of ion channels” (Pfizer Limited, priority 2007, dated 2014).

These molecules were tested against T1, hSCN3A sodium channels (Homo sapiens, UniProt Q9NY46) (assay: hSCN3A electrophysiology, whole-cell patch-clamp or PatchXpress 7000, estimated IC-50 (Table B)). Conditions: estimated IC-50; hSCN3A cells, whole-cell patch-clamp or PatchXpress 7000; read-out: SCN3A EIC-50.
T1 construct: expressed in transfected cells
T1 sequence (Q9NY46 whole entry): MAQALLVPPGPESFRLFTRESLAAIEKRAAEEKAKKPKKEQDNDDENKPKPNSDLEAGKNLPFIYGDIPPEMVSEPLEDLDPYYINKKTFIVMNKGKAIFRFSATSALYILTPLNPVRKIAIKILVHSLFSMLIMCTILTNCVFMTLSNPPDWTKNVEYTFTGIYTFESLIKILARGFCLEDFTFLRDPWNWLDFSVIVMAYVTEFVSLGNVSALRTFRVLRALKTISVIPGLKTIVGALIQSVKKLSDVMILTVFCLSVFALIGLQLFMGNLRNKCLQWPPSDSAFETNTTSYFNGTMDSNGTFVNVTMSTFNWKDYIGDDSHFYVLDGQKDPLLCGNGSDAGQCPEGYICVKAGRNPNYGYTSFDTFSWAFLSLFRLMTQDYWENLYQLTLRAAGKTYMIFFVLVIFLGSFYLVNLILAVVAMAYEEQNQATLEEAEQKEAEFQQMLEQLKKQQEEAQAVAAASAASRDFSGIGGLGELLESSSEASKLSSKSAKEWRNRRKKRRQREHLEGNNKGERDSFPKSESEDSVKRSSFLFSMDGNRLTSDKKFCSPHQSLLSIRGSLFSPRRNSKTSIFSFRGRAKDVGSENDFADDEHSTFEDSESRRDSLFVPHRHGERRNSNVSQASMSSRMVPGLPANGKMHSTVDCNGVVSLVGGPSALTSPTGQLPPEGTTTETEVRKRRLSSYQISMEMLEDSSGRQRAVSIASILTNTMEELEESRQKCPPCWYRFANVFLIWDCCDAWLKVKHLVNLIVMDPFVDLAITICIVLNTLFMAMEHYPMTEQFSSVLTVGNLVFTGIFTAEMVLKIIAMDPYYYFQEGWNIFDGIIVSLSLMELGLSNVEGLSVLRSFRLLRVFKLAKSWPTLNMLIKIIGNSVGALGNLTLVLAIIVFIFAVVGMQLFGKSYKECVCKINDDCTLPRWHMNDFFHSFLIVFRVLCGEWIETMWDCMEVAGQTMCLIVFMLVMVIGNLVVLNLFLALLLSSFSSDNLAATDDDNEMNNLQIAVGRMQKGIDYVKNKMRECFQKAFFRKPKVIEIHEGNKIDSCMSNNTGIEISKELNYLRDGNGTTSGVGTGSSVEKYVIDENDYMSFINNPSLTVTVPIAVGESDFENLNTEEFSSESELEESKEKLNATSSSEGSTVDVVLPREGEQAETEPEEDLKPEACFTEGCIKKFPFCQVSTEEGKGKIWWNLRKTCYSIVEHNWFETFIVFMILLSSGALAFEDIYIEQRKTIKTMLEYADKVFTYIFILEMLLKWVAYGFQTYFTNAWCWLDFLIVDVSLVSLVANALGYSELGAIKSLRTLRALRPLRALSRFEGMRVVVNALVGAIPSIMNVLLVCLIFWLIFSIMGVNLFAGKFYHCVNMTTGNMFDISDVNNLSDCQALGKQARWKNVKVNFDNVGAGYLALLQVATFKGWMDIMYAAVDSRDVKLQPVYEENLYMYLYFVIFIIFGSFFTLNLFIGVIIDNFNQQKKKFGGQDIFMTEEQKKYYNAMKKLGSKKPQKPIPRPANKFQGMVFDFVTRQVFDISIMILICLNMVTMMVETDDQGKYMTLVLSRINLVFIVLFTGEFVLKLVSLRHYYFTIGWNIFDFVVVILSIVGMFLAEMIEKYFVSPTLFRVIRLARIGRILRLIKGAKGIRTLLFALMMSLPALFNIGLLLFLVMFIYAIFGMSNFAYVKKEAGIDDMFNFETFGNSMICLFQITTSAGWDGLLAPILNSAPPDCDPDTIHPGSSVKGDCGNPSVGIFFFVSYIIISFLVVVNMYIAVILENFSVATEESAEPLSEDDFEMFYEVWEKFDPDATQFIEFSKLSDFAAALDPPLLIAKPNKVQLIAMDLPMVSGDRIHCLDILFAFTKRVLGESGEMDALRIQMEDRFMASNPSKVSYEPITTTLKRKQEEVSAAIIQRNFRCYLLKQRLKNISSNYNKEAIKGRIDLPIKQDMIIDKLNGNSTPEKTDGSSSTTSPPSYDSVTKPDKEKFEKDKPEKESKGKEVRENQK
Assay type: cell-based
How it was run: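 A 20 msec test pulse to 0 mV followed an 8 sec conditioning prepulse at each cell's measured V1/2. Room-temperature (22-24° C) recordings on HEK cells stably expressing the channel, conventional or PatchXpress.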
In the case of `Cc1cc(NC(=O)c2ccc(S(=O)(=O)Nc3nccs3)cc2)cnc1C` [Example 175, N-(5,6-dimethylpyridin-3-yl)-4-[(1,3-thiazol-2-ylamino)sulfonyl]benzamide], the IC50 is reported as 4050 nM.
`COc1ccc(CNC(=O)c2ccc(S(=O)(=O)Nc3nccs3)cc2)cc1` [Example 176, N-(4-methoxybenzyl)-4-[(1,3-thiazol-2-ylamino)sulfonyl]benzamide] was tested, and the IC50 was 4500 nM.
`COc1ccc(NC(=O)c2ccc(S(=O)(=O)Nc3nccs3)cc2)cn1` [Example 177, N-(6-methoxypyridin-3-yl)-4-[(1,3-thiazol-2-ylamino)sulfonyl]benzamide] was tested, and the IC50 was 5670 nM.
Work on `N#Cc1cccc(CNC(=O)c2ccc(S(=O)(=O)Nc3nccs3)cc2)c1` [Example 180, N-(3-cyanobenzyl)-4-[(1,3-thiazol-2-ylamino)sulfonyl]benzamide] yielded an IC50 of over 1000 nM.
Work on `O=C(c1ccc(S(=O)(=O)Nc2nccs2)cc1)N1CCC(c2ccccc2)C1` (stereo not drawn) [Example 191, 4-[(3-Phenylpyrrolidin-1-yl)carbonyl]-N-1,3-thiazol-2-yl-benzenesulfonamide] yielded an IC50 of 2250 nM.
Work on `N#Cc1ccc(OC2CCCN(C(=O)c3ccc(S(=O)(=O)Nc4nccs4)cc3)C2)cc1F` (stereo not drawn) [Example 193, 4-{[3-(4-Cyano-3-fluorophenoxy)piperidin-1-yl]carbonyl}-N-1,3-thiazol-2-yl-benzenesulfonamide] yielded an IC50 of 3270 nM.
`CC1(c2ccc(Cl)cc2)CCN(C(=O)c2ccc(S(=O)(=O)Nc3nccs3)cc2)CC1` [Example 195, 4-{[4-(4-Chlorophenyl)-4-methylpiperidin-1-yl]carbonyl}-N-1,3-thiazol-2-yl-benzenesulfonamide] was tested, and the IC50 was 280 nM.
For `COc1ccccc1CC1CCCN(C(=O)c2ccc(S(=O)(=O)Nc3nccs3)cc2)C1` (stereo not drawn) [Example 196, 4-{[3-(2-Methoxybenzyl)piperidin-1-yl]carbonyl}-N-1,3-thiazol-2-yl-benzenesulfonamide], the IC50 was over 1000 nM.
For `Cc1ccccc1O[C@H]1CCN(C(=O)c2ccc(S(=O)(=O)Nc3nccs3)cc2)C1` [Example 198, 4-{[(3S)-3-(2-methylphenoxy)pyrrolidin-1-yl]carbonyl}-N-1,3-thiazol-2-yl-benzenesulfonamide], the IC50 was 3030 nM.
For `O=C(c1ccc(S(=O)(=O)Nc2nccs2)cc1)N1CC[C@H](Oc2ccccc2Cl)C1` [Example 200, 4-{[(3S)-3-(2-chlorophenoxy)pyrrolidin-1-yl]carbonyl}-N-1,3-thiazol-2-yl-benzenesulfonamide], the IC50 was 3600 nM.
`COc1cccc(C2CCCN(C(=O)c3ccc(S(=O)(=O)Nc4nccs4)cc3)C2)c1` (stereo not drawn) [Example 217, 4-{[3-(3-Methoxyphenyl)piperidin-1-yl]carbonyl}-N-1,3-thiazol-2-yl-benzenesulfonamide] showed an IC50 of 2910 nM.
`N#CCCN(Cc1ccccc1)C(=O)c1ccc(S(=O)(=O)Nc2nccs2)cc1` [Example 218, N-benzyl-N-(2-cyanoethyl)-4-[(1,3-thiazol-2-yl-amino)sulfonyl]benzamide] gave an IC50 of 21200 nM.
`O=C(c1ccc(S(=O)(=O)Nc2nccs2)cc1)N1CCC(O)(c2cccc(F)c2)CC1` [Example 220, 4-{[4-(3-Fluorophenyl)-4-hydroxypiperidin-1-yl]carbonyl}-N-1,3-thiazol-2-yl-benzenesulfonamide] gave an IC50 of over 1000 nM.
`O=C(c1ccc(S(=O)(=O)Nc2nccs2)cc1)N1CCCC(Cc2ccc(F)cc2)C1` (stereo not drawn) [Example 222, 4-{[3-(4-Fluorobenzyl)piperidin-1-yl]carbonyl}-N-1,3-thiazol-2-yl-benzenesulfonamide] gave an IC50 of 980 nM.
`COc1ccccc1C1CN(C(=O)c2ccc(S(=O)(=O)Nc3nccs3)cc2)CCO1` (stereo not drawn) [Example 232, 4-{[2-(2-Methoxyphenyl)morpholin-4-yl]carbonyl}-N-1,3-thiazol-2-yl-benzenesulfonamide] showed an IC50 of 3420 nM.
`O=C(c1ccc(S(=O)(=O)Nc2nccs2)cc1)N1CCC(O)(c2ccc(Cl)cc2)CC1` [Example 236, 4-{[4-(4-Chlorophenyl)-4-hydroxypiperidin-1-yl]carbonyl}-N-1,3-thiazol-2-ylbenzenesulfonamide] showed an IC50 of 3110 nM.
Molecule `O=C(c1ccc(S(=O)(=O)Nc2nccs2)cc1)N1CCCCC1c1ccccc1` (stereo not drawn) [Example 239, 4-[(2-Phenylpiperidin-1-yl)carbonyl]-N-1,3-thiazol-2-yl-benzenesulfonamide] has an IC50 of 2970 nM.
`O=C(c1ccc(S(=O)(=O)Nc2nccs2)cc1)N(Cc1ccccc1)[C@H]1CCCC[C@H]1CO` [Example 245, N-benzyl-N-[(1S,2R)-2-(hydroxymethyl)cyclohexyl]-4-[(1,3-thiazol-2-ylamino)sulfonyl]benzamide] gave an IC50 of 2220 nM.
`O=C(c1ccc(S(=O)(=O)Nc2nccs2)cc1)N1CC[C@@H](Oc2ccccc2Cl)C1` [Example 247, 4-{[(3R)-3-(2-chlorophenoxy)pyrrolidin-1-yl]carbonyl}-N-1,3-thiazol-2-yl-benzenesulfonamide] showed an IC50 of over 1000 nM.
Work on `Cc1ccc(OC2CCCN(C(=O)c3ccc(S(=O)(=O)Nc4nccs4)cc3)C2)cc1` (stereo not drawn) [Example 249, 4-{[3-(4-mMethylphenoxy)piperidin-1-yl]carbonyl}-N-1,3-thiazol-2-yl-benzenesulfonamide] yielded an IC50 of 1660 nM.
Molecule `Cc1ccc(C2(O)CCN(C(=O)c3ccc(S(=O)(=O)Nc4nccs4)cc3)CC2)cc1` [Example 252, 4-{[4-Hydroxy-4-(4-methylphenyl)piperidin-1-yl]carbonyl}-N-1,3-thiazol-2-yl-benzenesulfonamide] has an IC50 of 2110 nM.
Molecule `COc1ccccc1C1CCCN1C(=O)c1ccc(S(=O)(=O)Nc2nccs2)cc1` (stereo not drawn) [Example 254, 4-{[2-(2-Methoxyphenyl)pyrrolidin-1-yl]carbonyl}-N-1,3-thiazol-2-yl-benzenesulfonamide] has an IC50 of over 1000 nM.
In the case of `CC(O)(CN(C(=O)c1ccc(S(=O)(=O)Nc2nccs2)cc1)C1CCCCC1)c1ccccc1` (stereo not drawn) [Example 257, N-cyclohexyl-N-(2-hydroxy-2-phenylpropyl)-4-[(1,3-thiazol-2-yl-amino)sulfonyl]benzamide], the IC50 is reported as over 1000 nM.
`O=C(c1ccc(S(=O)(=O)Nc2nccs2)cc1)N1CCOC(COc2cc(F)cc(F)c2)C1` (stereo not drawn) [Example 262, 4-({2-[(3,5-Difluorophenoxy)methyl]morpholin-4-yl}carbonyl)-N-1,3-thiazol-2-ylbenzenesulfonamide] showed an IC50 of 6850 nM.
In the case of `COc1cccc(CC2CCCN(C(=O)c3ccc(S(=O)(=O)Nc4nccs4)cc3)C2)c1` (stereo not drawn) [Example 263, 4-{[3-(3-Methoxybenzyl)piperidin-1-yl]carbonyl}-N-1,3-thiazol-2-yl-benzenesulfonamide], the IC50 is reported as 1130 nM.
In the case of `O=C(c1ccc(S(=O)(=O)Nc2nccs2)cc1)N1CCOC(COc2ccc(F)cc2Cl)C1` (stereo not drawn) [Example 266, 4-({2-[(2-Chloro-4-fluorophenoxy)methyl]morpholin-4-yl}carbonyl)-N-1,3-thiazol-2-ylbenzenesulfonamide], the IC50 is reported as 1670 nM.
Work on `O=C(c1ccc(S(=O)(=O)Nc2nccs2)cc1)N1CCCC(Oc2ccccc2)C1` (stereo not drawn) [Example 277, 4-[(3-Phenoxypiperidin-1-yl)carbonyl]-N-1,3-thiazol-2-yl-benzenesulfonamide] yielded an IC50 of 2190 nM.
For `O=C(c1ccc(S(=O)(=O)Nc2nccs2)cc1)N1CCCC1Cc1cccc(Cl)c1` (stereo not drawn) [Example 279, 4-{[2-(3-Chlorobenzyl)pyrrolidin-1-yl]carbonyl}-N-1,3-thiazol-2-yl-benzenesulfonamide], the IC50 was 2200 nM.
`O=C(NCc1ccc(OC(F)(F)F)cc1)c1ccc(S(=O)(=O)Nc2nccs2)c(Cl)c1` [Example 284, 3-Chloro-4-[(1,3-thiazol-2-ylamino)sulfonyl]-N-[4-(trifluoromethoxy)benzyl]benzamide] gave an IC50 of 1220 nM.
`O=C(NCc1ccc(OC(F)(F)F)c(F)c1)c1ccc(S(=O)(=O)Nc2nccs2)c(Cl)c1` [Example 286, 3-Chloro-N-[3-fluoro-4-(trifluoromethoxy)benzyl]-4-[(1,3-thiazol-2-yl-amino)sulfonyl]benzamide] showed an IC50 of 140 nM.
`O=C(NCc1ccc(C(F)(F)F)cc1)c1ccc(S(=O)(=O)Nc2nccs2)c(Cl)c1` [Example 287, 3-Chloro-4-[(1,3-thiazol-2-ylamino)sulfonyl]-N-[4-(trifluoromethyl)benzyl]benzamide] showed an IC50 of 220 nM.
`O=C(NCc1ccc(C(F)(F)F)c(F)c1)c1ccc(S(=O)(=O)Nc2nccs2)c(Cl)c1` [Example 289, 3-Chloro-N-[3-fluoro-4-(trifluoromethyl)benzyl]-4-[(1,3-thiazol-2-yl-amino)sulfonyl]benzamide] was tested, and the IC50 was 340 nM.
In the case of `O=C(NCc1ccc(F)c(C(F)(F)F)c1)c1ccc(S(=O)(=O)Nc2nccs2)c(Cl)c1` [Example 290, 3-Chloro-N-[4-fluoro-3-(trifluoromethyl)benzyl]-4-[(1,3-thiazol-2-yl-amino)sulfonyl]benzamide], the IC50 is reported as 1390 nM.
`O=C(NCc1ccc(Cl)c(Cl)c1)c1ccc(S(=O)(=O)Nc2nccs2)c(Cl)c1` [Example 291, 3-Chloro-N-(3,4-dichlorobenzyl)-4-[(1,3-thiazol-2-ylamino)sulfonyl]benzamide] gave an IC50 of 710 nM.
`O=C(NCc1ccc(Cl)c(F)c1)c1ccc(S(=O)(=O)Nc2nccs2)c(Cl)c1` [Example 292, 3-Chloro-N-(4-chloro-3-fluorobenzyl)-4-[(1,3-thiazol-2-yl-amino)sulfonyl]benzamide] showed an IC50 of 900 nM.
In the case of `O=C(NCc1ccc(F)c(OC(F)(F)F)c1)c1ccc(S(=O)(=O)Nc2nccs2)c(Cl)c1` [Example 293, 3-Chloro-N-[4-fluoro-3-(trifluoromethoxy)benzyl]-4-[(1,3-thiazol-2-yl-amino)sulfonyl]benzamide], the IC50 is reported as 2320 nM.
With `O=C(NCc1ccc(F)c(Cl)c1)c1ccc(S(=O)(=O)Nc2nccs2)c(Cl)c1` [Example 294, 3-Chloro-N-(3-chloro-4-fluorobenzyl)-4-[(1,3-thiazol-2-yl-amino)sulfonyl]benzamide] the IC50 was 1840 nM.
Molecule `O=C(NCc1ccc(Cl)c(F)c1)c1ccc(S(=O)(=O)Nc2nccs2)c(F)c1` [Example 295, N-(4-chloro-3-fluorobenzyl)-3-fluoro-4-[(1,3-thiazol-2-ylamino)sulfonyl]benzamide] has an IC50 of 220 nM.
With `O=C(NCc1cccc(OC(F)(F)F)c1)c1ccc(S(=O)(=O)Nc2nccs2)c(F)c1` [Example 296, 3-Fluoro-4-[(1,3-thiazol-2-ylamino)sulfonyl]-N-[3-(trifluoromethoxy)benzyl]benzamide] the IC50 was 190 nM.
